The target in this assay is T1, KRAS G12C 1-169, his-tagged protein, GDP-loaded (Homo sapiens, UniProt P01116, G12C).
T1 construct: KRAS G12C 1-169, his-tagged protein, GDP-loaded
The experiment in a line: Biochemical assay: covalent modification of KRAS G12C measured by mass spectrometry (RapidFire/TOF or Q-Exactive). In kind it is binding. The settings on record: compound concentration and incubation time not given. On the procedure:
Test compounds are prepared as 10 mM stock solutions in DMSO (Fisher cat #BP-231-100). KRAS G12C 1-169, his-tagged protein, GDP-loaded is diluted to 2 μM or 0.5 μM in buffer (20 mM Hepes, 150 mM NaCl, 1 mM MgCl2). Compounds are tested for activity as follows:
Compounds are diluted to 50× final test concentration in DMSO in 96-well storage plates. Compound stock solutions are vortexed before use and observed carefully for any sign of precipitation. Dilutions are as follow: • For 100 μM final compound concentration, compounds are diluted to 5000 μM (5 μL 10 mM compound stock+5 μL DMSO and mixed well by pipetting. • For 30 μM final compound concentration, compounds are diluted to 1500 μM (3 μI, 10 mM compound stock+17 μL DMSO) and mixed well by pipetting. • For 10 μM final compound concentration, compounds are diluted to 500 μM (2 μL 10 mM compound stock+38 μL DMSO) and mixed well by pipetting. 49 μL of the stock protein solution is added to each well of a 96-well PCR plate (Fisher cat #1423027). 1 μl of the diluted 50× compounds are added to appropriate wells in the PCR plate using 12-channel pipettor. Reactions are mixed carefully and thoroughly by pipetting up/down with a 200 μL multi-channel pipettor. […] The plate is then resealed with aluminum seal and stored on dry ice until analyzed as described below.
The above described assays are analyzed by mass spectrometry according to one of the following two procedures: […]
After another 30 minute equilibration time, a blank batch (i.e., buffer) is run to ensure equipment is operating properly. […] The method is then run and masses of each individual well recorded. […]
The masses and peak intensities of KRAS G12C protein species are measured using a Dionex RSLCnano system (Thermo Scientific) connected to a Q Exactive Plus mass spectrometer (Thermo Scientific). […]
The mass spectrometer is operated in profile mode at a resolution of 17500, 5 microscans, using 50 msec max injection time and an AGC target of 1×10^6, and a full mass range from 800-1850 m/z is recorded. […]

T1 sequence (P01116 1-169 isoform P01116-2 G12C): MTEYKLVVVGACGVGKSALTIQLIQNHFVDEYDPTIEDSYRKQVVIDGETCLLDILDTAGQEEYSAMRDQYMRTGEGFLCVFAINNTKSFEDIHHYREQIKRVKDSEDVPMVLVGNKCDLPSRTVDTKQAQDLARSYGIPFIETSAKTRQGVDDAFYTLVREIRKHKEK

As for `C=CC(=O)N1CC(n2cnc3c(Nc4c(C)ccc5cn[nH]c45)cncc3c2=O)C1` [Compound 55, 3-(1-acryloylazetidin-3-yl)-8-((6-methyl-1H-indazol-7-yl)amino)pyrido[4,3-d]pyrimidin-4(3H)-one], the Binding % result is “+ (+ indicates binding activity up to 5%)”. With `C=CC(=O)N1CC(n2cnc3c(Nc4cc(O)cc5ccccc45)cncc3c2=O)C1` [Compound 56, 3-(1-acryloylazetidin-3-yl)-8-((3-hydroxynaphthalen-1-yl)amino)pyrido[4,3-d]pyrimidin-4(3H)-one], the Binding % entry is listed as “+ (+ indicates binding activity up to 5%)”. In the case of `C=CC(=O)N1CC(n2cc(C)c3cncc(Nc4c(C)ccc5[nH]ncc45)c3c2=O)C1` [Compound 57, 2-(1-acryloylazetidin-3-yl)-4-methyl-8-((5-methyl-1H-indazol-4-yl)amino)-2,6-naphthyridin-1(2H)-one] it was “+ (+ indicates binding activity up to 5%)”.
